{"source": "the supplement of paper PMC11208160"}
{"assay": "recombinant UMI read abundance after kanamycin selection (control-corrected) (log10(CPM+1)); higher = more efficient recombination; extreme values may be limits of the assay; sequences stand for … in AGTGCAGAGAAAATCGGCCAGTTTTCTCTGCCTGCAGTCCGCATGCCGTGGGACCCCTTGGGTTCTAACCTGTTGCCTAGATTTATGCAGCGGACTGCCTTTCTCCCAAAGTGATAAACCGG…AGGTTGGTTTCACT; site = the 11-nt donor", "procedure,_shortened": "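Under IPTG (0.07 mM) plus kanamycin, or without selection, Escherichia coli carrying a UMI-tagged donor and donor-binding-loop pair library and a target plasmid for the IS621 bridge recombinase were plated in two replicates. Recombinant UMIs were PCR-amplified across the donor–target junction and sequenced. Counts were converted to CPM, averaged over replicates, scaled by control-derived factors and reported as log10(CPM+1).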"}
{"sequence": "GATCCCTCATGGACCGGTTTTCCCGGTAATCCGTATTTGGC (site GATCCCTCTGC)", "recombinant UMI read abundance (log10)": 0.839}
{"sequence": "ACACATCCATGGACCGGTTTTCCCGGTAATCCGTATTTGCC (site ACACATCCTGT)", "recombinant UMI read abundance (log10)": 0}
{"sequence": "CTGGAAACATGGACCGGTTTTCCCGGTAATCCGTATTTGGT (site CTGGAAACTAC)", "recombinant UMI read abundance (log10)": 1.92}
{"sequence": "GGAGTGGCATGGACCGGTTTTCCCGGTAATCCGTATTTGGT (site TGAGTGGCTAC)", "recombinant UMI read abundance (log10)": 0.32}
{"sequence": "ACAGTATCATGGACCGGTTTTCCCGGTAATCCGTATTTGGA (site ACAGTATCTTT)", "recombinant UMI read abundance (log10)": 2.61}
{"sequence": "GCGAAGCCATGGACCGGTTTTCCCGGTAATCCGTATTTGGG (site GCAAAGCCTCC)", "recombinant UMI read abundance (log10)": 0.00547}
{"sequence": "CTGGAAACATGGACCGGTTTTCCCGGTAATCCGTATTTGCG (site CTGGAAACTAG)", "recombinant UMI read abundance (log10)": 0}
{"sequence": "CCGTTTACATGGACCGGTTTTCCCGGTAATCCGTATTTGGT (site CCGTTTACTAC)", "recombinant UMI read abundance (log10)": 0.279}
{"sequence": "CCGAATCCATGGACCGGTTTTCCCGGTAATCCGTATTTGCT (site CCGAATCCTAG)", "recombinant UMI read abundance (log10)": 0.196}
{"sequence": "AATTAAGCATGGACCGGTTTTCCCGGTAATCCGTATTTGGA (site AATTAGGCTTC)", "recombinant UMI read abundance (log10)": 0.648}
{"sequence": "TCTTCCCCATGGACCGGTTTTCCCGGTAATCCGTATTTGTA (site TATTCCCCTTA)", "recombinant UMI read abundance (log10)": 0.0172}
{"sequence": "CAGCAACCATGGACCGGTTTTCCCGGTAATCCGTATTTGCA (site CAGCAACCTTG)", "recombinant UMI read abundance (log10)": 0}
{"sequence": "CCTTATACATGGACCGGTTTTCCCGGTAATCCGTATTTGGC (site CCTGATACTGC)", "recombinant UMI read abundance (log10)": 0}
{"sequence": "TTTGCGGCATGGACCGGTTTTCCCGGTAATCCGTATTTGAT (site TTTGCGGCTAT)", "recombinant UMI read abundance (log10)": 0.414}
{"sequence": "TCAGACCCATGGACCGGTTTTCCCGGTAATCCGTATTTGGA (site TCAGACCCTTC)", "recombinant UMI read abundance (log10)": 0.201}
{"sequence": "CTAGTATCATGGACCGGTTTTCCCGGTAATCCGTATTTGAC (site GTAGTACCTGT)", "recombinant UMI read abundance (log10)": 0}
{"sequence": "TGCTAGGCATGGACCGGTTTTCCCGGTAATCCGTATTTGGG (site TGCTAGGCTAC)", "recombinant UMI read abundance (log10)": 0.0327}
{"sequence": "TCCTGGCCATGGACCGGTTTTCCCGGTAATCCGTATTTGTA (site TCCTGGCCTTA)", "recombinant UMI read abundance (log10)": 0.0229}
{"sequence": "ATCTATACATGGACCGGTTTTCCCGGTAATCCGTATTTGAC (site ATCTATACTTT)", "recombinant UMI read abundance (log10)": 0.0131}
{"sequence": "TAACGAGCATGGACCGGTTTTCCCGGTAATCCGTATTTGGG (site TAATGAGCTCC)", "recombinant UMI read abundance (log10)": 0.0081}
{"sequence": "CGCGGACCATGGACCGGTTTTCCCGGTAATCCGTATTTGGG (site CGAGGACCTCC)", "recombinant UMI read abundance (log10)": 0.0232}
{"sequence": "TTCTCTCCATGGACCGGTTTTCCCGGTAATCCGTATTTGAA (site TTCTCTCCTTT)", "recombinant UMI read abundance (log10)": 0.019}
{"sequence": "GAAACACCATGGACCGGTTTTCCCGGTAATCCGTATTTGAG (site GAAACACCTCT)", "recombinant UMI read abundance (log10)": 0.0146}
{"sequence": "CATTAGCCATGGACCGGTTTTCCCGGTAATCCGTATTTGGA (site CATTAGCCTTC)", "recombinant UMI read abundance (log10)": 0.0164}
{"sequence": "GTTGGCGCATGGACCGGTTTTCCCGGTAATCCGTATTTGTG (site GTTGGCGCTCA)", "recombinant UMI read abundance (log10)": 0.74}
{"sequence": "CCCATCTCATGGACCGGTTTTCCCGGTAATCCGTATTTGTA (site CCCATCTCTTA)", "recombinant UMI read abundance (log10)": 1.97}
{"sequence": "TTAGCTGCATGGACCGGTTTTCCCGGTAATCCGTATTTGTG (site TTAGCGGCTCA)", "recombinant UMI read abundance (log10)": 0.00865}
{"sequence": "CAGTTGGCATGGACCGGTTTTCCCGGTAATCCGTATTTGGA (site CATTTGGCTTC)", "recombinant UMI read abundance (log10)": 0.00616}
{"sequence": "GAGCTCACATGGACCGGTTTTCCCGGTAATCCGTATTTGAT (site GAGCTCACTAC)", "recombinant UMI read abundance (log10)": 0}
{"sequence": "GCGAGCTCATGGACCGGTTTTCCCGGTAATCCGTATTTGGG (site GCGAGCTCTCC)", "recombinant UMI read abundance (log10)": 0.714}
{"sequence": "AGCTCAGCATGGACCGGTTTTCCCGGTAATCCGTATTTGGG (site AGCTCAGCTCG)", "recombinant UMI read abundance (log10)": 0.0246}
{"sequence": "TGTCCCCCATGGACCGGTTTTCCCGGTAATCCGTATTTGTA (site TGTACCCCTTA)", "recombinant UMI read abundance (log10)": 0.013}
{"sequence": "ATTGATACATGGACCGGTTTTCCCGGTAATCCGTATTTGGT (site ATTGACACTAC)", "recombinant UMI read abundance (log10)": 0.179}
{"sequence": "CCCTGCTCATGGACCGGTTTTCCCGGTAATCCGTATTTGGG (site CCCTTCTCTCC)", "recombinant UMI read abundance (log10)": 0.018}
{"sequence": "TGACGCTCATGGACCGGTTTTCCCGGTAATCCGTATTTGCG (site TGACGCTCTCG)", "recombinant UMI read abundance (log10)": 1.33}
{"sequence": "TACTTGCCATGGACCGGTTTTCCCGGTAATCCGTATTTGCT (site TACTTGACTAG)", "recombinant UMI read abundance (log10)": 0.00966}
{"sequence": "AATGTTACATGGACCGGTTTTCCCGGTAATCCGTATTTGCT (site AATGTCACTAG)", "recombinant UMI read abundance (log10)": 1.13}
{"sequence": "ATCCAAGCATGGACCGGTTTTCCCGGTAATCCGTATTTGCG (site ATCCAAGCTCT)", "recombinant UMI read abundance (log10)": 0.689}
